Measurements taken from ChEMBL document CHEMBL1201862, “PubChem BioAssay data set” (2004).
The source made the active and inactive calls.

Experiments:
[1] = molecular target: T1, Alkaline phosphatase, tissue-nonspecific isozyme (Homo sapiens, UniProt P05186); test: TNAP enzyme inhibition by screening hits, dose response, selectivity assay for mouse IAP inhibitor project, biochemical, human TNAP, uHTS hits (AID 488906); format: functional
T1 sequence (P05186 whole entry): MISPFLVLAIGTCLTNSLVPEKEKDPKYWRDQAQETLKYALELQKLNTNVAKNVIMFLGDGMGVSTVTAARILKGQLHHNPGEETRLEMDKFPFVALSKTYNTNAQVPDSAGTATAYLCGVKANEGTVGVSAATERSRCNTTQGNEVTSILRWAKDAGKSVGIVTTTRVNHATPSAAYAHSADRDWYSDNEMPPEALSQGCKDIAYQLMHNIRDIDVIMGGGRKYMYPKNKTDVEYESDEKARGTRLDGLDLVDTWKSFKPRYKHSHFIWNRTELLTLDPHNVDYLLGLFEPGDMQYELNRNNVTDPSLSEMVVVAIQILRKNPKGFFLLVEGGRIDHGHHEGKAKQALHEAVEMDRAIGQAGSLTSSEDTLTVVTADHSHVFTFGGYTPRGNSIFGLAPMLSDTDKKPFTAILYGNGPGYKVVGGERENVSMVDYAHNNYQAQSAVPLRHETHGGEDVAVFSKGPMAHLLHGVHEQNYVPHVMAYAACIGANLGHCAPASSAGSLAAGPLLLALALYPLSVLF

[2] = molecular target: Small ubiquitin-related modifier 1 (Homo sapiens, UniProt P63165); test: SUMO1 protein-protein binding blockers, potency – biochemical, FRET, dose response (AID 624383); format: functional; conditions: read-out: IC50_Mean
[3] = molecular target: T2, Ubiquitin-conjugating enzyme E2 N (Homo sapiens, UniProt P61088); format: functional;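 further: Dose-response confirmation in a TR-FRET assay detecting UBC13-driven polyubiquitin chain formation, inhibition measured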
T2 sequence (P61088 whole entry): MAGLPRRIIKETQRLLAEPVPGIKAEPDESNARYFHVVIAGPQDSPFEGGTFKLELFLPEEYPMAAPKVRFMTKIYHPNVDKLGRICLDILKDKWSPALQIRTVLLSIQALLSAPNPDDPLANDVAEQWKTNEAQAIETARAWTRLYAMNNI

[4] = molecular target: Delta-type opioid receptor (Homo sapiens, UniProt P41143); test: Counterscreen for agonists of heterodimerization of the mu 1 (OPRM1) and delta 1 (OPRD1) opioid receptors: Luminescence-based cell-based high throughput dose response assay to identify agonists of OPRD1 homodimerization. [Related pubchem assays (depositor defined):AID504326, AID504355, AID504692, AID504904, AID504905]; format: functional
Mu-type opioid receptor = Mu-type opioid receptor (Homo sapiens, UniProt P35372); test: Counterscreen for agonists of heterodimerization of the mu 1 (OPRM1) and delta 1 (OPRD1) opioid receptors: Luminescence-based cell-based high throughput dose response assay to identify agonists of OPRM1 homodimerization.; format: functional;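 further: U2OS cells expressing OPRM1 and beta-arrestin as split beta-galactosidase partners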
Insulin-degrading enzyme = molecular target: T3, Insulin-degrading enzyme (Homo sapiens, UniProt P14735); test: recombinant IDE activation, cell-free – biochemical, fluorescence polarization, counter-screen for IDE activator project, dose response (AID 588681)
T3 sequence (P14735 whole entry): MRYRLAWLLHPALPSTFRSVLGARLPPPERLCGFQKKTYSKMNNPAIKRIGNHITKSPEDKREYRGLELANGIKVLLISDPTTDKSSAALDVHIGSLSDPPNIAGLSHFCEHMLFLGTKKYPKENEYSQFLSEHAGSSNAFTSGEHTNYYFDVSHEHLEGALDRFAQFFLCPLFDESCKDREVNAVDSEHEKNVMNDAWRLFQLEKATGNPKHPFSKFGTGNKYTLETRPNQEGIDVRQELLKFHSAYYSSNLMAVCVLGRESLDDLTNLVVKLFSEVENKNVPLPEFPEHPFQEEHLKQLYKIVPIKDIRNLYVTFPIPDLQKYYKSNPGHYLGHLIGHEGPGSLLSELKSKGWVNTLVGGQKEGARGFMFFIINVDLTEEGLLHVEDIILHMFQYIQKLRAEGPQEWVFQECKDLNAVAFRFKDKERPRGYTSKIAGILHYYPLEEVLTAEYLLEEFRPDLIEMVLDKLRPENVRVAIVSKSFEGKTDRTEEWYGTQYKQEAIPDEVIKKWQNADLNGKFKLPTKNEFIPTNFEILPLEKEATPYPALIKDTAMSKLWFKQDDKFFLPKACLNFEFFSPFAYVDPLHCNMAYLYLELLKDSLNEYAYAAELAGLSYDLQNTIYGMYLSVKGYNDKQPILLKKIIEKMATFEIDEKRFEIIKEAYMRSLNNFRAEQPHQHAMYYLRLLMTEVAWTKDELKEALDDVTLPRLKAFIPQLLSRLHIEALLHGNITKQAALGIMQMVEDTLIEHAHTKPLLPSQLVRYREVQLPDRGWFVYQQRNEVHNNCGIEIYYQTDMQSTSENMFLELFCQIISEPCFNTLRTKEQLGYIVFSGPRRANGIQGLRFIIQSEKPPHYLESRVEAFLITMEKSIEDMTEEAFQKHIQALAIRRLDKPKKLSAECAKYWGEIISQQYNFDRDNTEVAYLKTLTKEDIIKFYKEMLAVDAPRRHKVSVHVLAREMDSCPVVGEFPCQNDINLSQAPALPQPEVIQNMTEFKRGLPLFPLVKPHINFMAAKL

[5] = molecular target: Intestinal-type alkaline phosphatase (Mus musculus, UniProt P24822); test: PubChem AID 488785; format: functional
Intestinal-type alkaline phosphatase, sequence (P24822 whole entry): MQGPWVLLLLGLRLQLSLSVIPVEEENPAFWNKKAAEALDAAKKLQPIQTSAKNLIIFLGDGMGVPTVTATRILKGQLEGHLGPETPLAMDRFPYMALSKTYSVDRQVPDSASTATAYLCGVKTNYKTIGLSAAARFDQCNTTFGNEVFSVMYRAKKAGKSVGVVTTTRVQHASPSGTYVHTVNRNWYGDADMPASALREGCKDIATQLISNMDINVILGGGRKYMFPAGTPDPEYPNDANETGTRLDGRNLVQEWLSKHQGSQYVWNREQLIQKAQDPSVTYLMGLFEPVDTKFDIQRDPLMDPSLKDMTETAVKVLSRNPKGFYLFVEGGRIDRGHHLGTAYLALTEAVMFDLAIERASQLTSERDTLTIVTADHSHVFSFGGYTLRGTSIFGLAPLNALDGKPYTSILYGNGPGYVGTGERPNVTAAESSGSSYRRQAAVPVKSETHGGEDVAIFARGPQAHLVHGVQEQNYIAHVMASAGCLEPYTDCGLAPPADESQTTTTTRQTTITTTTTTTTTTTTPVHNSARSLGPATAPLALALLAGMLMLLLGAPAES

Mu-type opioid receptor, sequence (P35372 whole entry): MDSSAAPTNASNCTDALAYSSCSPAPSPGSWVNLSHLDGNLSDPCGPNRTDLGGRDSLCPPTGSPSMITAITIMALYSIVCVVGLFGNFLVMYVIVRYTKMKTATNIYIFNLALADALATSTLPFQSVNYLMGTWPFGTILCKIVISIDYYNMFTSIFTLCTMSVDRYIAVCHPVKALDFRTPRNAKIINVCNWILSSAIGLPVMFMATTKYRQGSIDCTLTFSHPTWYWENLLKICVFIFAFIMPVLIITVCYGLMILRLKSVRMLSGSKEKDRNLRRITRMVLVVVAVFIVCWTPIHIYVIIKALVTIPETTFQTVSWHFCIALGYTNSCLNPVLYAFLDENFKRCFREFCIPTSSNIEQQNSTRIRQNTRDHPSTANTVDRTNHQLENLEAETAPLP
Delta-type opioid receptor, sequence (P41143 whole entry): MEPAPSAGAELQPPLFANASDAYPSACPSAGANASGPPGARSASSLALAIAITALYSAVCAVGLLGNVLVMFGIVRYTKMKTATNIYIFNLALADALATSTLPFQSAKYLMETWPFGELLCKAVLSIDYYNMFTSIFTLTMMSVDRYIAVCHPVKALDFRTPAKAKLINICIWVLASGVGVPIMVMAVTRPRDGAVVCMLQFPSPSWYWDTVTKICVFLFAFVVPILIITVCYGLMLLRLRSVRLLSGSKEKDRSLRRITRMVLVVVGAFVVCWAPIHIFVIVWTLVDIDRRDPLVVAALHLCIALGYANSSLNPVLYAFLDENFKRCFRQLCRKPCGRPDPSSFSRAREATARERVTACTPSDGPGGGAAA
Small ubiquitin-related modifier 1, sequence (P63165 whole entry): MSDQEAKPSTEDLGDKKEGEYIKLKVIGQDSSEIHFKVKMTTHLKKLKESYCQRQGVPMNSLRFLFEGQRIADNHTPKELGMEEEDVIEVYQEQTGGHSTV

In the case of `Clc1ccc(C(c2ccc(Cl)cc2)n2cc[n+](CC(OCc3ccc(Cl)cc3Cl)c3ccc(Cl)cc3Cl)c2)cc1` (configuration not stated) [CALMIDAZOLIUM CHLORIDE], the IC50 [1] is reported as > 100 µM (inactive), the IC50 [2] is reported as 5.89 µM (active) and the IC50 [3] is reported as 10.9 µM (active). The EC50 [4] was > 92.5 µM (inactive), the EC50 (Mu-type opioid receptor) was > 92.5 µM (inactive) and the EC50 (Insulin-degrading enzyme) was > 54.7 µM (inactive). For the same compound, the IC50 [5] was 14.6 µM (active).
